Data published in PubChem BioAssay AID330 (DTP/NCI, 2004).
Values joined by “and” are separate entries in the source; they are usually repeats but may differ in a detail not shown here. Identical values can stand only once. Toxic doses and inconclusive results are not listed. How the source made its calls: active means survival T/C of 150% or more; inactive means T/C below 125% in these data. Square brackets hold non-standard residues; d marks the D form. Peptide text beside a SMILES is read from it. * marks the point of attachment. ξ: configuration not given here. Cbz = O=C(OCc1ccccc1)*; ξNva = CCCC(N)C(=O)O

Tested on: P388 leukemia ip, CD2F1 mice, survival T/C
Experiment: NCI In Vivo Anticancer Drug Screen. Data for tumor model P388 Leukemia (intraperitoneal) in CD2F1 (CDF1) mice
Conditions: endpoint: median survival time, higher = longer survival
In short: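 Mice carrying the transplanted tumor received test compound or vehicle. Survival was recorded in each group, and the value is the treated-group measurement divided by that of the vehicle-treated control group.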

[1] = dose: 50.0 mg/kg/injection, schedule: Q01DX009 (ip), vehicle: Klucel (hydroxypropylcellulose) (HPC)
[2] = dose: 100.0 mg/kg/injection, schedule: Q01DX009 (ip), vehicle: Klucel (hydroxypropylcellulose) (HPC)
[3] = dose: 60.0 mg/kg/injection, schedule: Q01DX005 (ip), vehicle: Klucel + Tween-80
[4] = dose: 60.0 mg/kg/injection, schedule: Q01DX005 (ip), vehicle: saline with Tween-80
[5] = dose: 120.0 mg/kg/injection, schedule: Q01DX005 (ip), vehicle: saline with Tween-80
[6] = dose: 240.0 mg/kg/injection, schedule: Q01DX005 (ip), vehicle: saline with Tween-80
[7] = dose: 50.0 mg/kg/injection, schedule: Q01DX005 (ip), vehicle: saline with Tween-80
[8] = dose: 100.0 mg/kg/injection, schedule: Q01DX005 (ip), vehicle: saline with Tween-80
[9] = dose: 100.0 mg/kg/injection, schedule: Q01DX009 (ip), vehicle: saline with Tween-80
[10] = dose: 200.0 mg/kg/injection, schedule: Q01DX009 (ip), vehicle: saline with Tween-80
[11] = dose: 100.0 mg/kg/injection, schedule: Q04DX003 (ip), vehicle: saline with Tween-80
[12] = dose: 50.0 mg/kg/injection, schedule: Q01DX009 (ip), vehicle: saline with Tween-80

Measured: T/C

C=CCN1CCCSC1=S
inactive: [1] 106 % of control | [2] 108 % of control

Cc1nn(C(=O)c2ccncc2)c(C)c1N=Nc1c(C)[nH]n(-c2ccccc2)c1=O
inactive: dose: 100.0 mg/kg/injection, schedule: Q04DX003 (ip), vehicle: Klucel (hydroxypropylcellulose) (HPC) 95 % of control | dose: 200.0 mg/kg/injection, schedule: Q04DX003 (ip), vehicle: Klucel (hydroxypropylcellulose) (HPC) 102 % of control | dose: 400.0 mg/kg/injection, schedule: Q04DX003 (ip), vehicle: Klucel (hydroxypropylcellulose) (HPC) 101 % of control

CC(=O)Nc1cc2cc(N=CN(C)C)ccc2oc1=O
inactive: [3] 99 % of control | dose: 120.0 mg/kg/injection, schedule: Q01DX005 (ip), vehicle: Klucel + Tween-80 104 % of control

COC1=C[C@@H](C)[C@@H]2C[C@H]3O[C@@H](OC4OC(CO)C(O)C(O)C4O)C[C@H]4C(C)=C(OC)C(=O)[C@H]([C@@]2(C)C1=O)[C@@]34C (stereo not given in full)
inactive: dose: 4.0 mg/kg/injection, schedule: Q01DX005 (ip), vehicle: Klucel (hydroxypropylcellulose) (HPC) 96 % of control | dose: 8.0 mg/kg/injection, schedule: Q01DX005 (ip), vehicle: Klucel (hydroxypropylcellulose) (HPC) 94 % of control | dose: 16.0 mg/kg/injection, schedule: Q01DX005 (ip), vehicle: Klucel (hydroxypropylcellulose) (HPC) 103 % of control

c1cc[n+](Cc2c3ccccc3cc3c2ccc2ccccc23)cc1
inactive: dose: 6.25 mg/kg/injection, schedule: Q01DX005 (ip), vehicle: Klucel (hydroxypropylcellulose) (HPC) 112 % of control | dose: 12.5 mg/kg/injection, schedule: Q01DX005 (ip), vehicle: Klucel (hydroxypropylcellulose) (HPC) 112 % of control | dose: 25.0 mg/kg/injection, schedule: Q01DX005 (ip), vehicle: Klucel (hydroxypropylcellulose) (HPC) 110 % of control

N#CCCN(CCCN1CCOCC1)CN1C(=O)c2ccccc2C1=O
inactive: [1] 98 % of control | [2] 91 % of control | dose: 400.0 mg/kg/injection, schedule: Q01DX009 (ip), vehicle: Klucel (hydroxypropylcellulose) (HPC) 99 % of control

CC1(CN2CCCCC2)COc2c(Cl)cc(Cl)cc2C1=O (stereo not given)
inactive: [4] 94 % of control | [5] 94 % of control | [6] 86 % of control

N#C/C(=N\NC(=O)c1cccnc1)c1ccc(Cl)cc1
inactive: [7] 92 % of control | [8] 92 % of control | dose: 200.0 mg/kg/injection, schedule: Q01DX005 (ip), vehicle: saline with Tween-80 101 % of control

CCc1nnc2c(c(=O)n(C)c(=O)n2C)[n+]1[O-]
inactive: dose: 20.0 mg/kg/injection, schedule: Q01DX001 (ip), vehicle: Klucel (hydroxypropylcellulose) (HPC) 106 % of control | dose: 40.0 mg/kg/injection, schedule: Q01DX001 (ip), vehicle: Klucel (hydroxypropylcellulose) (HPC) 106 % of control | dose: 80.0 mg/kg/injection, schedule: Q01DX001 (ip), vehicle: Klucel (hydroxypropylcellulose) (HPC) 112 % of control | dose: 100.0 mg/kg/injection, schedule: Q01DX001 (ip), vehicle: Klucel (hydroxypropylcellulose) (HPC) 109 % of control

N#CC(C(=O)N1CCCC1)=C(S)S
inactive: [9] 100 % of control | [10] 100 % of control | dose: 400.0 mg/kg/injection, schedule: Q01DX009 (ip), vehicle: saline with Tween-80 100 % of control

COc1cc(Br)c(/C=C/[N+](=O)[O-])cc1OC
inactive: [11] 116 % of control

CCCC1(N2CCCC2)C(=O)NC(=O)N(CC)C1=O (stereo not given)
inactive: dose: 60.0 mg/kg/injection, schedule: Q01DX005 (ip), vehicle: Klucel (hydroxypropylcellulose) (HPC) 108 % of control | dose: 120.0 mg/kg/injection, schedule: Q01DX005 (ip), vehicle: Klucel (hydroxypropylcellulose) (HPC) 93 % of control | dose: 240.0 mg/kg/injection, schedule: Q01DX005 (ip), vehicle: Klucel (hydroxypropylcellulose) (HPC) 101 % of control

CC1(C)Oc2cc3oc(C(=O)O)cc(=O)c3cc2-c2ccccc21
inactive: dose: 50.0 mg/kg/injection, schedule: Q01DX009 (ip), vehicle: saline 92 % of control | dose: 100.0 mg/kg/injection, schedule: Q01DX009 (ip), vehicle: saline 96 % of control | dose: 200.0 mg/kg/injection, schedule: Q01DX009 (ip), vehicle: saline 109 % of control

BrC1=CC(Br)=C2N=C(C(Br)(Br)Br)N=C3N=C(C(Br)(Br)Br)N=C1N32
inactive: dose: 15.0 mg/kg/injection, schedule: Q01DX005 (ip), vehicle: Klucel + Tween-80 106 % of control | dose: 30.0 mg/kg/injection, schedule: Q01DX005 (ip), vehicle: Klucel + Tween-80 109 % of control | [3] 103 % of control and 110 % of control

O=c1c(Cl)c2cc3c(cc2c2ccccc12)nc1ccccc1n3C1CCCCC1
inactive: [12] 88 % of control | [9] 94 % of control | [10] 98 % of control

Nc1ccc(S(=O)(=O)Nc2ccccc2O)cc1
inactive: dose: 3.12 mg/kg/injection, schedule: Q01DX001 (ip), vehicle: saline with Tween-80 99 % of control | dose: 6.25 mg/kg/injection, schedule: Q01DX001 (ip), vehicle: saline with Tween-80 106 % of control | dose: 12.5 mg/kg/injection, schedule: Q01DX001 (ip), vehicle: saline with Tween-80 97 % of control | dose: 25.0 mg/kg/injection, schedule: Q01DX001 (ip), vehicle: saline with Tween-80 94 % of control | dose: 50.0 mg/kg/injection, schedule: Q01DX001 (ip), vehicle: saline with Tween-80 100 % of control

CCCCCCC1(/C=C/c2ccc(Cl)c(Cl)c2)OCC(C)(C)CO1
inactive: [12] 100 % of control | [9] 89 % of control | [10] 90 % of control

N#Cc1ccc(NN=NCCCCl)cc1
inactive: dose: 25.0 mg/kg/injection, schedule: Q01DX005 (ip), vehicle: distilled water + Tween-80 95 % of control | dose: 25.0 mg/kg/injection, schedule: Q01DX005 (ip), vehicle: saline with Tween-80 100 % of control | dose: 50.0 mg/kg/injection, schedule: Q01DX005 (ip), vehicle: distilled water + Tween-80 93 % of control | [7] 100 % of control | dose: 100.0 mg/kg/injection, schedule: Q01DX005 (ip), vehicle: distilled water + Tween-80 95 % of control | [8] 121 % of control

CCn1c2ccccc2c2cc(N=Nc3ccnc4c(O)cccc34)ccc21
inactive: dose: 12.5 mg/kg/injection, schedule: Q01DX009 (ip), vehicle: saline with Tween-80 119 % of control | dose: 25.0 mg/kg/injection, schedule: Q01DX009 (ip), vehicle: saline with Tween-80 117 % of control | [9] 108 % of control and 97 % of control

O=C1C=CCC12CC=CC2=O
inactive: dose: 6.25 mg/kg/injection, schedule: Q01DX001 (ip), vehicle: Klucel (hydroxypropylcellulose) (HPC) 100 % of control and 105 % of control | dose: 12.5 mg/kg/injection, schedule: Q01DX001 (ip), vehicle: Klucel (hydroxypropylcellulose) (HPC) 117 % of control and 94 % of control | dose: 25.0 mg/kg/injection, schedule: Q01DX001 (ip), vehicle: Klucel (hydroxypropylcellulose) (HPC) 100 % of control and 123 % of control

COC1=CC(=O)C(CO)=CC1=O
inactive: dose: 3.12 mg/kg/injection, schedule: Q01DX009 (ip), vehicle: saline 104 % of control | dose: 6.25 mg/kg/injection, schedule: Q01DX009 (ip), vehicle: saline 103 % of control and 104 % of control | dose: 12.5 mg/kg/injection, schedule: Q01DX009 (ip), vehicle: saline 104 % of control and 91 % of control

CC(C)(C(=O)c1ccccc1)C(=O)c1ccccc1
inactive: [12] 95 % of control | [9] 100 % of control | [10] 95 % of control

CCCC(NC(=O)OCc1ccccc1)C(=O)NCC(=O)O (stereo not given) (Cbz-[ξNva]-Gly-OH)
inactive: dose: 50.0 mg/kg/injection, schedule: Q01DX005 (ip), vehicle: Klucel (hydroxypropylcellulose) (HPC) 107 % of control | dose: 100.0 mg/kg/injection, schedule: Q01DX005 (ip), vehicle: Klucel (hydroxypropylcellulose) (HPC) 93 % of control | dose: 200.0 mg/kg/injection, schedule: Q01DX005 (ip), vehicle: Klucel (hydroxypropylcellulose) (HPC) 91 % of control

Cc1ccc(N=S(C)C)cc1
inactive: dose: 100.0 mg/kg/injection, schedule: Q04DX002 (ip), vehicle: Klucel (hydroxypropylcellulose) (HPC) 100 % of control | dose: 200.0 mg/kg/injection, schedule: Q04DX002 (ip), vehicle: Klucel (hydroxypropylcellulose) (HPC) 101 % of control | dose: 400.0 mg/kg/injection, schedule: Q04DX002 (ip), vehicle: Klucel (hydroxypropylcellulose) (HPC) 113 % of control

O=c1[nH]c2cc(Cl)ccc2nc1/C=C(\O)c1ccc(F)cc1
inactive: [4] 89 % of control | [5] 87 % of control | [6] 102 % of control

O=C(/C(=C/c1ccccc1)c1ccc(Cl)cc1)c1ccccc1
inactive: [11] 116 % of control | dose: 200.0 mg/kg/injection, schedule: Q04DX003 (ip), vehicle: saline with Tween-80 100 % of control | dose: 400.0 mg/kg/injection, schedule: Q04DX003 (ip), vehicle: saline with Tween-80 103 % of control
